From article PMC12040275, “Fusaric acid-mediated S-glutathionylation of MaAKT1 channel confers the virulence of Foc TR4 to banana” (PLOS Pathogens, 2025) come the findings set out here.

The target in experiment [1] is T1, MaAKT1 (Musa acuminata, UniProt A0A804HWY8).
T1 construct: synthesized cDNA in pcDNA 6/His A, expressed in HEK-293 cells; patch-clamp
Briefly: whole-cell patch clamp, HEK-293. Conditions: HEK293. Type of experiment: cell-based. Background: In patch-clamp work, channel activity is measured electrically.

Experiment [2] concerns the target T1, MaAKT1. Kind of experiment: patch clamp, giant inside-out patches from HEK-293. Type of experiment: biochemical. Conditions: covalent (cysteine thiol oxidation); applied to cytosolic side; -194 mV.

T1 sequence (A0A804HWY8 1-891): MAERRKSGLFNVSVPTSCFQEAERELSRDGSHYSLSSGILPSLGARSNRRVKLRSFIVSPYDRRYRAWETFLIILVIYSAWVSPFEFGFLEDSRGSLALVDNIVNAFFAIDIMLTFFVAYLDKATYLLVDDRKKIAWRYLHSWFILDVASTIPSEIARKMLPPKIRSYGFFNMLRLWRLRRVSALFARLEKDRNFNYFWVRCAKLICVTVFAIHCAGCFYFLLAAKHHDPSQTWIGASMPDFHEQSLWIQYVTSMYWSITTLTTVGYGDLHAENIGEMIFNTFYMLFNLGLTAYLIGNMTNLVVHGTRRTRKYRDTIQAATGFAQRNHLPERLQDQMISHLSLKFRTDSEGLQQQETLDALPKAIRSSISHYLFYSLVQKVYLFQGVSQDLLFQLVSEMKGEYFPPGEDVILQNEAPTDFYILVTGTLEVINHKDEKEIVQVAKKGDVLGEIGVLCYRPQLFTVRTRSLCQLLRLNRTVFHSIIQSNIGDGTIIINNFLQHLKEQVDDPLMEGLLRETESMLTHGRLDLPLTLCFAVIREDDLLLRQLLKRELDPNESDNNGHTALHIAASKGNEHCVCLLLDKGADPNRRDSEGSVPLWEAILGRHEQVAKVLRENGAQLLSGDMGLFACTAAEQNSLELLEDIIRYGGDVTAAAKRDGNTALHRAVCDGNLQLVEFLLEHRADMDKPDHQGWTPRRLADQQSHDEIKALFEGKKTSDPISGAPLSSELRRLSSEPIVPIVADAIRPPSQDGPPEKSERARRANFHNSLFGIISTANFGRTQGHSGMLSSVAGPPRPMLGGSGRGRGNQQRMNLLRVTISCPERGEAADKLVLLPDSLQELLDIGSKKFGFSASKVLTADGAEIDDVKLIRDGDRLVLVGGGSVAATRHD

In experiment [1], `c1ccc(SSc2ccccn2)nc1` [2-DTP, 2,2-Dithiodipyridine] returned an inhibition at 50 µM of 61.5 ± 6.66%.

For `O=C(O)c1cc(SSc2ccc([N+](=O)[O-])c(C(=O)O)c2)ccc1[N+](=O)[O-]` [DTNB, 5,5-dithiobis-2-nitrobenzoic acid], in experiment [2], the “patch clamp, giant inside-out patches from HEK-293” value was “low concentration of DTNB significantly inhibited MaAKT1”.

For the molecule `O=[N+]([O-])c1ccc(SSc2ccc([N+](=O)[O-])cn2)nc1` [DTNP, 2,2’-dithiobis-5-nitropyridine], in experiment [1], the inhibition at 50 µM was determined as 60 ± 9.89%.

As usually defined, the inhibition is the percentage by which the read-out fell short of the control.
